Data on 33 molecules can be found in US20240239766A1, “3-AMINO PIPERIDYL SODIUM CHANNEL INHIBITORS” (Genentech, Inc., priority 2021, published 2024).

For the assay, the target named is hNav1.7 (Homo sapiens (Human), UniProt Q15858). Kind of assay: Patch voltage clamp electrophysiology assay (EP), Syncropatch 384PE, CHO cells expressing Nav1.7. It is filed as cell-based. To be noted: holding potential −50 mV; 7.5 min compound incubation; read-out: EP SP hNav1.7 EVO (IC50). The text has this:
Example 101c: Electrophysiological Assay (EP) (In Vitro Assay)
Patch voltage clamp electrophysiology allows for the direct measurement and quantification of block of voltage-gated sodium channels (NaV's), and allows the determination of the time- and voltage-dependence of block which has been interpreted as differential binding to the resting, open, and inactivated states of the sodium channel (Hille, B., Journal of General Physiology (1977), 69: 497-515).
The following voltage clamp electrophysiology studies are performed on representative compounds using cells heterologously expressing Nav1.7 or Nav1.5 channels. cDNAsfor Nav1.7 (NM_002977) and Nav1.5 (AC137587) are stably expressed in Chinese Hamstr Ovary (CHO) cells and CHL (Chinese Hamster Lung) cells respectively. Sodium currents are measured in the whole-cell configuration using Syncropatch 384PE (Nanlon Technologies, Germany). 1NPC®-384 chips with custom medium resistance and single hole mode are used. Internal solution consists of (in mM): […], 10 CsCl, 20 EGTA, and 10 Hepes (pH adjusted to 7.2); and external solution contains (in mM): 60 NMDG, 80 NaCl, 4 KCl, 1 MgCl2, 2 CaCl2), 2 D-Glucose monohydrate, 10 Hepes (pH adjusted to 7.4 with NaOH).
After system flushing, testing compounds are dissolved in external solution containing 0.1% Pluronic F-127. The chip is moved into the measuring head and the instrument primes the chip with external and internal solutions. 10 μl cells are added to the chip from a cell hotel, and a negative pressure of −50 mBar is applied to form a seal. Following treatment with seal enhancer solution and wash-off with external solution, negative pressure of −250 mbar is applied for 1 second to achieve the whole-cell configuration, followed by three washing steps in external solution. 20 μl of compounds is added to 40 μl in each well (1:3 dilution of compounds), and after mixing, 20 μl is removed so the volume is retained at 40 ul. After approximately 13 minutes recordings, 20 μl/well of 2 uM TTX, or 333 uM Tetracaine (for Nav1.5) is added to achieve full block.
For voltage protocol, an holding potential of −50 mV is applied during the whole experiment. A depolarizing step is applied to −10 mV for 10 ms, followed by a hyperpolarization step to −150 mV for 20 ms to allow channel recovery from inactivation. A second depolarizing step is applied from −150 mV to −10 mV for 10 ms, where currents are measured to derive blocking effects of compounds. Inhibition is determined based on 7.5 min of compound incubation.

Structures can show the parent of a compound that is named as a salt.

Sequence of hNav1.7 (Q15858 other isoform, or with tags, fused parts or gaps): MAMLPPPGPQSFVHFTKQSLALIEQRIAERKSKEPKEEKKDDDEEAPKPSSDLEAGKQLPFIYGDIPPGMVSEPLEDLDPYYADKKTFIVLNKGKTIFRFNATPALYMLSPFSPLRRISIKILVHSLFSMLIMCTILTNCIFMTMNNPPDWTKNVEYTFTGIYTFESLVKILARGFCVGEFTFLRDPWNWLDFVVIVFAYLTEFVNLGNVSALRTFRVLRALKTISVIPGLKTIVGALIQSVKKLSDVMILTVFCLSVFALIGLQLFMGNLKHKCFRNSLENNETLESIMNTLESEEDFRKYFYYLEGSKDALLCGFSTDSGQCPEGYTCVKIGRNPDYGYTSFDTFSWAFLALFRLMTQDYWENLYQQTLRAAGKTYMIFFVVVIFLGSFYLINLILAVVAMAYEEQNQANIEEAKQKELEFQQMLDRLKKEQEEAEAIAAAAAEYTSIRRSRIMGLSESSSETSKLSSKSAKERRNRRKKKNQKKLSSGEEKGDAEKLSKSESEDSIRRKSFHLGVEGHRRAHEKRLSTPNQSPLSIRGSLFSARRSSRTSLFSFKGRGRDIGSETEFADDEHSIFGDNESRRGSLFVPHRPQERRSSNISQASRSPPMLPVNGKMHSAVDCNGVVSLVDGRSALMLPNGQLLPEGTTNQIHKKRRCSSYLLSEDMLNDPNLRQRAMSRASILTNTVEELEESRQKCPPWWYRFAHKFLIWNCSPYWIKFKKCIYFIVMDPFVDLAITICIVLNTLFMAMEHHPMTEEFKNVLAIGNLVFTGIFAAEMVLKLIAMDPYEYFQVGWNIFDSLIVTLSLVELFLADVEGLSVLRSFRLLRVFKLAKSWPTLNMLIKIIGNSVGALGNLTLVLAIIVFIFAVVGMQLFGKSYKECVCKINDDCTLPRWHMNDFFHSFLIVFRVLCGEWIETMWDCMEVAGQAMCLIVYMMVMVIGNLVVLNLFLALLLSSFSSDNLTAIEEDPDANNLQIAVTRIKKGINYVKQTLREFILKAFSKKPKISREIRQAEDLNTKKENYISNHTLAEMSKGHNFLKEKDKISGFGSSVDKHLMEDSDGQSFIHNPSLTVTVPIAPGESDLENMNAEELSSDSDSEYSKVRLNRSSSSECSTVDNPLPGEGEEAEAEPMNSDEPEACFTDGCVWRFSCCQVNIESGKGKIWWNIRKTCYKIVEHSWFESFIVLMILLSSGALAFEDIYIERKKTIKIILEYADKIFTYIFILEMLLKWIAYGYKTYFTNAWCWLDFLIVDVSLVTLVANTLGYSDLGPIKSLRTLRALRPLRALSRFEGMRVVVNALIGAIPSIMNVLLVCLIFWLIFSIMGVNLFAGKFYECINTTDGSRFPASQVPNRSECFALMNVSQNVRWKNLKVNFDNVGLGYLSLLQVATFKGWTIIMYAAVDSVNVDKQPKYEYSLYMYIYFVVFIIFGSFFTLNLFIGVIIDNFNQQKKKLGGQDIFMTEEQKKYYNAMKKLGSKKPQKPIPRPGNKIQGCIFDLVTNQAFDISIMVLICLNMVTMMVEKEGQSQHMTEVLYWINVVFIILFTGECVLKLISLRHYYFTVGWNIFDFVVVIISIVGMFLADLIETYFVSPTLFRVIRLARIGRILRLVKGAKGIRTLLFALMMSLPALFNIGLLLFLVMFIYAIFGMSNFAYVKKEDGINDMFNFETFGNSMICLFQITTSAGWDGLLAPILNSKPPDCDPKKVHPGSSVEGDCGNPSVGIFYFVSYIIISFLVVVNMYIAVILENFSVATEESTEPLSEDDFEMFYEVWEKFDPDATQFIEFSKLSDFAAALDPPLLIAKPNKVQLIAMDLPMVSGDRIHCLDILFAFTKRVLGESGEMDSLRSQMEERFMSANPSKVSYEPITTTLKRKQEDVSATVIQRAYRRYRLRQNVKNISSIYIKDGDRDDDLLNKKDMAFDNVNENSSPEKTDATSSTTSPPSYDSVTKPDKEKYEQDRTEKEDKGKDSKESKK

As for `CN(CCO)[C@@]1(CCc2cccc(C(F)(F)F)c2)CCCN(c2cc(F)c(S(=O)(=O)Nc3ccncn3)c(F)c2)C1` (single isomer, unassigned) [Example 60], the IC50 was 138 nM.

On to `CN(C)[C@]1(CCc2cccc(C(F)(F)F)c2)CCCN(c2ccc(S(=O)(=O)Nc3nccs3)c(F)c2)C1` (single isomer, unassigned) [Example 14], for which the half-maximal inhibitory concentration (IC50) worked out at 58.7 nM.

In the case of `CN(C)[C@@]1(CCc2cccc(C(F)(F)F)n2)CCCN(c2cc(F)c(S(=O)(=O)Nc3ccncn3)c(F)c2)C1` [Example 97, (R)-4-(3-(Dimethylamino)-3-(2-(6-(trifluoromethyl)pyridin-2-yl)ethyl)-piperidin-1-yl)-2,6-difluoro-N-(pyrimidin-4-yl)benzenesulfonamide formate], the half-maximal inhibitory concentration (IC50) turned out to be 10000 nM.

For the molecule `Cc1cc(N2CCC[C@](CCc3cccc(C(F)(F)F)c3)(N(C)C)C2)cc(C)c1S(=O)(=O)Nc1ccncn1` (single isomer, unassigned) [Example 62, formate], the IC50 turned out to be 8.59 nM.

For `CN(C)[C@@]1(CCc2ccc(C(F)(F)F)c(Cl)c2)CCCN(c2cc(F)c(S(=O)(=O)Nc3ccncn3)c(F)c2)C1` (single isomer, unassigned) [Example 50], the IC50 was 504 nM.

Regarding `CN(C)[C@]1(CCc2cccc(C(F)(F)F)c2)CCCN(c2cc(F)c(S(=O)(=O)Nc3ncccn3)c(F)c2)C1` (single isomer, unassigned) [Example 53], the IC50 turned out to be 9.23 nM.

On to `CN(C)[C@]1(C[C@@H]2CCc3ccc(C(F)(F)F)cc32)CCCN(c2cc(F)c(S(=O)(=O)Nc3ccncn3)c(F)c2)C1` [Example 49, 4-((S)-3-(Dimethylamino)-3-(((S)-6-(trifluoromethyl)-2,3-dihydro-1H-inden-1-yl)methyl)piperidin-1-yl)-2,6-difluoro-N-(pyrimidin-4-yl)benzenesulfonamide formate], for which the half-inhibitory concentration (IC50) amounted to 11.1 nM.

On to `CN(C)[C@]1(CCc2cc(C(F)(F)F)ccc2Cl)CCCN(c2cc(F)c(S(=O)(=O)Nc3ccncn3)c(F)c2)C1` (single isomer, unassigned) [Example 33, formate], for which the IC50 stood at 1.89 nM.

Regarding `CCN(C)[C@]1(CCc2cccc(C(F)(F)F)c2)CCCN(c2cc(F)c(S(=O)(=O)Nc3ccncn3)c(F)c2)C1` (single isomer, unassigned) [Example 79, formate], the IC50 turned out to be 7.56 nM.

Take `CN(C)[C@@]1(C[C@@H]2CCc3ccc(C(F)(F)F)cc32)CCCN(c2cc(F)c(S(=O)(=O)Nc3ccncn3)c(F)c2)C1` [Example 46, 4-((R)-3-(Dimethylamino)-3-(((S)-6-(trifluoromethyl)-2,3-dihydro-1H-inden-1-yl)methyl)piperidin-1-yl)-2,6-difluoro-N-(pyrimidin-4-yl)benzenesulfonamide formate]: the IC50 was found to be 1320 nM.

Regarding `CN(C)[C@@]1(CCc2ccc(C3CC3)c(C(F)(F)F)c2)CCCN(c2cc(F)c(S(=O)(=O)Nc3ccncn3)c(F)c2)C1` (single isomer, unassigned) [Example 86], the IC50 came to 3.78 nM.

In the case of `CN1CCC(N(C)[C@@]2(CCc3cccc(C(F)(F)F)c3)CCCN(c3ccc(S(=O)(=O)Nc4ccncn4)c(F)c3)C2)CC1` (single isomer, unassigned) [Example 36], the IC50 turned out to be 2690 nM.

As for `CN(C)[C@]1(CCc2cccc(C(F)(F)F)c2)CCCN(c2ccc(S(=O)(=O)Nc3ccncn3)c(Cl)c2)C1` (single isomer, unassigned) [Example 71, formate], the IC50 worked out at 560 nM.

`Cc1cc(N2CCC[C@](CCc3cccc(C(F)(F)F)c3)(N(C)C)C2)cc(F)c1S(=O)(=O)Nc1ccncn1` [Example 9, (S)-4-(3-(Dimethylamino)-3-(3-(trifluoromethyl)phenethyl)-piperidin-1-yl)-2-fluoro-6-methyl-N-(pyrimidin-4-yl)benzenesulfonamide]: the IC50 was 597 nM.

As to `CN(C)[C@]1(CCc2cccc(Cl)c2)CCCN(c2cc(F)c(S(=O)(=O)Nc3ccncn3)c(F)c2)C1` (single isomer, unassigned) [Example 91, formate], the IC50 came out at 11.6 nM.

Take `CN(C)[C@@]1(CCc2cccc(C(F)(F)F)c2)CCCN(c2ccc(S(=O)(=O)Nc3ccncn3)c(F)c2)C1` (single isomer, unassigned) [Example 2, formate]: the IC50 was found to be 601 nM.

Regarding `CN(C)[C@]1(CCC2CCCCC2)CCCN(c2cc(F)c(S(=O)(=O)Nc3ccncn3)c(F)c2)C1` [Example 93, (R)-4-(3-(2-Cyclohexylethyl)-3-(dimethylamino)piperidin-1-yl)-2,6-difluoro-N-(pyrimidin-4-yl)benzenesulfonamide formate], the 50% inhibitory concentration (IC50) amounted to 245 nM.

As to `CN(C)[C@@]1(CCc2cccc(C3CC3)c2)CCCN(c2cc(F)c(S(=O)(=O)Nc3ccncn3)c(F)c2)C1` (single isomer, unassigned) [Example 88, formate], the IC50 was 3.29 nM.

As for `CN(C)[C@@]1(CCC2CCCCC2)CCCN(c2cc(F)c(S(=O)(=O)Nc3ccncn3)c(F)c2)C1` [Example 92, (S)-4-(3-(2-Cyclohexylethyl)-3-(dimethylamino)piperidin-1-yl)-2,6-difluoro-N-(pyrimidin-4-yl)benzenesulfonamide formate], the IC50 worked out at 3.82 nM.

As to `CN(C)[C@]1(CCc2cccc(C(F)(F)F)c2)CCCN(c2cc(F)c(S(=O)(=O)Nc3ccncn3)c(F)c2)C1` (single isomer, unassigned) [Example 16], the IC50 amounted to 1.41 nM.

Regarding `CN(C)[C@]1(CCc2cccc(C(F)(F)F)c2)CCCN(c2cc(F)c(S(=O)(=O)Nc3ccncn3)c(Cl)c2)C1` (single isomer, unassigned) [Example 18], the IC50 was determined as 1.83 nM.

As to `CN(C)[C@@]1(CC2CCCC2)CCCN(c2cc(F)c(S(=O)(=O)Nc3ccncn3)c(F)c2)C1` [Example 99, (R)-4-(3-(Cyclopentylmethyl)-3-(dimethylamino)piperidin-1-yl)-2,6-difluoro-N-(pyrimidin-4-yl)benzenesulfonamide], the IC50 is 8950 nM.

Turning to `CN(C)[C@]1(CC2CCCC2)CCCN(c2cc(F)c(S(=O)(=O)Nc3ccncn3)c(F)c2)C1` [Example 100, (S)-4-(3-(Cyclopentylmethyl)-3-(dimethylamino)piperidin-1-yl)-2,6-difluoro-N-(pyrimidin-4-yl)benzenesulfonamide], the IC50 worked out at 130 nM.

For the molecule `CN[C@@]1(CCc2cccc(C(F)(F)F)c2)CCCN(c2ccc(S(=O)(=O)Nc3ccncn3)c(F)c2)C1` (single isomer, unassigned) [Example 4], the IC50 is 638 nM.

Turning to `CN(C)[C@@]1(CCc2cc(Cl)cc(C(F)(F)F)c2)CCCN(c2cc(F)c(S(=O)(=O)Nc3ccncn3)c(F)c2)C1` (single isomer, unassigned) [Example 42], the IC50 was 52 nM.

Consider `CN(C)[C@]1(CCc2ccccc2)CCCN(c2ccc(S(=O)(=O)Nc3ccncn3)c(F)c2)C1` (single isomer, unassigned) [Example 6], for which the concentration for half-maximal inhibition (IC50) was 48.9 nM.

With `CN(C)[C@@]1(CCc2cccc(C(F)(F)F)c2)CCCN(c2cc(F)c(S(=O)(=O)Nc3ccncn3)cc2F)C1` (single isomer, unassigned) [Example 38], the IC50 amounted to 28.8 nM.

For the molecule `CN([C@H]1CCOC1)[C@@]1(CCc2cccc(C(F)(F)F)c2)CCCN(c2cc(F)c(S(=O)(=O)Nc3ccncn3)c(F)c2)C1` (single isomer, unassigned) [Example 80], the 50% inhibitory concentration (IC50) worked out at 283 nM.

Consider `CN(C)[C@@]1(CCc2cccc(C(F)(F)F)c2)CN(c2cc(F)c(S(=O)(=O)Nc3ccncn3)c(F)c2)CC[C@@H]1O` (single isomer, unassigned) [Example 75, formate], for which the IC50 stood at 4.48 nM.

Turning to `CN(C)[C@]1(CCc2cc(Cl)cc(C(F)(F)F)c2)CCCN(c2cc(F)c(S(=O)(=O)Nc3ccncn3)c(F)c2)C1` [Example 43, (R)-4-(3-(3-Chloro-5-(trifluoromethyl)phenethyl)-3-(dimethylamino)piperidin-1-yl)-2,6-difluoro-N-(pyrimidin-4-yl)benzenesulfonamide], the IC50 is 0.443 nM.

For the molecule `CN(C)[C@]1(CCc2cccc(C3CC3)c2)CCCN(c2cc(F)c(S(=O)(=O)Nc3ccncn3)c(F)c2)C1` (single isomer, unassigned) [Example 89, formate], the IC50 worked out at 567 nM.

As for `CN(C)[C@]1(CCc2c(Cl)cccc2Cl)CCCN(c2cc(F)c(S(=O)(=O)Nc3ccncn3)c(F)c2)C1` (single isomer, unassigned) [Example 69, formate], the IC50 came to 27.7 nM.

As to `CN(C)CCN(C)[C@]1(CCc2cccc(C(F)(F)F)c2)CCCN(c2ccc(S(=O)(=O)Nc3ccncn3)c(F)c2)C1` (single isomer, unassigned) [Example 28, formate], the IC50 is 8.08 nM.
